Data from patent US6660752B2, “2,6-Substituted chroman derivatives useful as beta-3 adrenoreceptor agonists” (Bayer Pharmaceuticals Corporation, priority 2001, dated 2003).
pEC50: −log10 of the molar value. Where a name gives a salt, the structure may show the parent alone.

target: T1, human beta-3-adrenergic receptor (Homo sapiens, UniProt P13945); assay: cAMP production (beta-3 agonist activity) in CHO cells stably expressing human beta-3-adrenergic receptor, cAMP SPA; assay type: cell-based; conditions: CHO cells expressing full-length human beta-3-adrenergic receptor, 30 min incubation, 10 μM to 3 nM, read-out: Beta-3 Agonistic Activity: Compounds with EC50 values >1 μM
T1 construct: stably express full-length human beta-3-adrenergic receptor; expressed in transfected cells; host or cells: Chinese hamster ovary (CHO) cells
T1 sequence (P13945 whole entry): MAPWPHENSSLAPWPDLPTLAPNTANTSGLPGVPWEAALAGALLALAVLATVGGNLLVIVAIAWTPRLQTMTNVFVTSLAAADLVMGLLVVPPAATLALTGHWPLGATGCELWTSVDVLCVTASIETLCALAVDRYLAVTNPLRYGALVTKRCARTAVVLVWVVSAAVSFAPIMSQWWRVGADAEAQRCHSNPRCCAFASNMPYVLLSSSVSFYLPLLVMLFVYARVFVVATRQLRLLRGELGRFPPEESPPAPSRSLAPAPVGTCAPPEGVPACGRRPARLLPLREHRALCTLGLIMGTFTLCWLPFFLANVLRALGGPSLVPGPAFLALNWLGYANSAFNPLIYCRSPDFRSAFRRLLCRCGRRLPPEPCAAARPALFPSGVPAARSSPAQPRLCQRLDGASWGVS
Description: Chinese hamster ovary (CHO) cells that stably express full-length human beta-3-adrenergic receptor (Granneman et al., Mol. Pharmacol. 44:264-270, 1993) can be used in the following procedure. The cell line is grown in 90% F12 nutrient mixture (HAM), 10% fetal bovine serum, 100 units/ml penicillin G sodium, […] streptomycin sulfate, and 2 mM L-glutamine at 37° C. in 95% air and 5% CO2. The transfected cell line is maintained with G-418 (800 μg/ml).
To test the agonist activity, cells are exposed to test compound and then assayed for cAMP production. CHO cells (100 μl) are plated at 5×10^4 cells/well of a 96-well plate (Costar, Cambridge, Mass.) to achieve 70% confluency the next day. After overnight incubation at 37° C., media is removed and the cells are treated for 30 minutes at 37° C. with KRP buffer (120 mM NaCl, 5.1 mM KCl, 0.6 mM MgSO4.7H2O, 0.8 mM CaCl2.H2O, […] phosphate buffer, […] Hepes pH 7.4)+[…] IBMX ([…]), +1% DMSO, +/− test compounds ([…]). Test compounds are assayed from 10 μM to 3 nM with 3-fold serial dilutions. The control agonist, isoproterenol (10 mM stock in 1.1 mM ascorbate), is assayed by 3-fold dilution beginning at 1 μM. After a 30-minute incubation with the test compounds, the buffer/compound mixture is removed. The cells are lysed and cAMP levels are measured using the cAMP SPA screening assay system (Amersham, Arlington Heights, Ill.). The cAMP values are then plotted to determine the EC50 of each compound tested.

Compound | pEC50
Nc1ccc([C@@H](O)CNC[C@H]2CCc3cc(C(=O)N4CCCC[C@H]4C(=O)O)ccc3O2)cn1 [Example 364] | < 6.00
Nc1ccc([C@@H](O)CNC[C@H]2CCc3cc(C(=O)N4CCC[C@@H]4C(=O)O)ccc3O2)cn1 [Example 367] | < 6.00
O[C@@H](CNC[C@H]1CCc2cc(-c3cccc(Cl)c3)ccc2O1)c1cccnc1 [Example 41] | < 6.00

same assay, conditions: CHO cells expressing full-length human beta-3-adrenergic receptor, 30 min incubation, 10 μM to 3 nM, read-out: Beta-3 Agonistic Activity: Compounds with EC50 values ≦1 μM

Compound | pEC50
O=C(NS(=O)(=O)c1ccc(-c2ccc3c(c2)CC[C@H](CNC[C@H](O)c2cccnc2)O3)cc1)C1CC1 [Example 285, N-(cyclopropylcarbonyl)-4-[(2R)-2-({[(2R)-2-hydroxy-2-(3-pyridinyl)ethyl]amino}methyl)-3,4-dihydro-2H-chromen-6-yl]benzenesulfonamide] | ≥ 6.00
COc1ccc(-c2ccc3c(c2)CC[C@H](CNC[C@H](O)c2cccnc2)O3)cc1S(=O)(=O)Nc1nccc(C)n1 [Example 269] | ≥ 6.00
CC(C)NC(=O)NS(=O)(=O)c1ccc(-c2ccc3c(c2)CC[C@H](CNC[C@H](O)c2cccnc2)O3)cc1 [Example 339] | ≥ 6.00
Nc1ccc(-c2ccc3c(c2)CC[C@H](CNC[C@H](O)c2cccnc2)O3)nc1 [Example 317, (1R)-2-({[(2R)-6-(5-amino-2-pyridinyl)-3,4-dihydro-2H-chromen-2-yl]methyl}amino)-1-(3-pyridinyl)ethanol Tetrahydrochloride] | ≥ 6.00
O=S(=O)(Nc1cnccc1C(F)(F)F)c1ccc(-c2ccc3c(c2)CC[C@H](CNC[C@H](O)c2cccnc2)O3)cc1 [Example 251] | ≥ 6.00
O=C(O)c1ccc(-c2ccc3c(c2)CC[C@H](CNC[C@H](O)c2cccc(Cl)c2)O3)cc1 [Example 344, 4-[(2R)-2-({[(2R)-2-(3-chlorophenyl)-2-hydroxyethyl]amino}methyl)-3,4-dihydro-2H-chromen-6-yl]benzoic acid] | ≥ 6.00
O[C@@H](CNC[C@H]1CCc2cc(-c3ccc(-c4ccccc4)cc3)ccc2O1)c1cccnc1 [Example 47] | ≥ 6.00
O=C(NC1CCCCC1)NS(=O)(=O)c1ccc(-c2ccc3c(c2)CC[C@H](CNC[C@H](O)c2cccnc2)O3)cc1 [Example 329, 3-{(1R)-2-[({(2R)-6-[4-({[(cyclohexylamino)carbonyl]amino}sulfonyl)phenyl]-3,4-dihydro-2H-chromen-2-yl}methyl)amino]-1-hydroxyethyl}pyridine] | ≥ 6.00
COc1cc(C)nc(NS(=O)(=O)c2ccc(-c3ccc4c(c3)CC[C@H](CNC[C@H](O)c3cccnc3)O4)cc2OC(F)(F)F)n1 [Example 275, 4-[(2R)-2-({[(2R)-2-hydroxy-2-(3-pyridinyl)ethyl]amino}methyl)-3,4-dihydro-2H-chromen-6-yl]-N-(4-methoxy-6-methyl-2-pyrimidinyl)-2-(trifluoromethoxy)benzenesulfonamide] | ≥ 6.00
CC(C)(C)C(=O)NS(=O)(=O)c1ccc(-c2ccc3c(c2)CC[C@H](CNC[C@H](O)c2cccnc2)O3)cc1 [Example 292, N-(2,2-dimethylpropanoyl)-4-[(2R)-2-({[(2R)-2-hydroxy-2-(3-pyridinyl)ethyl]amino}methyl)-3,4-dihydro-2H-chromen-6-yl]benzenesulfonamide] | ≥ 6.00
O=C(Nc1ccccc1)NS(=O)(=O)c1ccc(-c2ccc3c(c2)CC[C@H](CNC[C@H](O)c2cccnc2)O3)cc1 [Example 328, 3-[(1R)-2-({[(2R)-6-(4-{[(anilinocarbonyl)amino]sulfonyl}phenyl)-3,4-dihydro-2H-chromen-2-yl]methyl}amino)-1-hydroxyethyl]pyridine] | ≥ 6.00
O=C(Nc1ccccc1F)NS(=O)(=O)c1cccc(-c2ccc3c(c2)CC[C@H](CNC[C@H](O)c2cccnc2)O3)c1 [Example 336] | ≥ 6.00
O=C(Nc1ccc(F)cc1)NS(=O)(=O)c1ccc(-c2ccc3c(c2)CC[C@H](CNC[C@H](O)c2cccnc2)O3)cc1 [Example 327, 3-((1R)-2-{[((2R)-6-{4-[({[(4-fluorophenyl)amino]carbonyl}amino)sulfonyl]phenyl}-3,4-dihydro-2H-chromen-2-yl)methyl]amino}-1-hydroxyethyl)pyridine] | ≥ 6.00
O=S(=O)(Nc1ccc(-c2ccc3c(c2)CC[C@H](CNC[C@H](O)c2cccnc2)O3)nc1)c1ccccc1 [Example 319, N-{6-[(2R)-2-({[(2R)-2-hydroxy-2-(3-pyridinyl)ethyl]amino}methyl)-3,4-dihydro-2H-chromen-6-yl]-3-pyridinyl}benzenesulfonamide Trihydrochloride] | ≥ 6.00
NS(=O)(=O)c1ccc(-c2ccc3c(c2)CC[C@H](CNC[C@H](O)c2cccnc2)O3)cc1 [Example 325, 4-[(2R)-2-({[(2R)-2-hydroxy-2-(3-pyridinyl)ethyl]amino}methyl)-3,4-dihydro-2H-chromen-6-yl]benzenesulfonamide] | ≥ 6.00
CC(C)(C)CC(=O)NS(=O)(=O)c1ccc(-c2ccc3c(c2)CC[C@H](CNC[C@H](O)c2cccnc2)O3)cc1 [Example 287, N-(3,3-dimethylbutanoyl)-4-[(2R)-2-({[(2R)-2-hydroxy-2-(3-pyridinyl)ethyl]amino}methyl)-3,4-dihydro-2H-chromen-6-yl]benzenesulfonamide] | ≥ 6.00
COc1cc(C)nc(NS(=O)(=O)c2ccc(-c3ccc4c(c3)CC[C@H](CNC[C@H](O)c3cccnc3)O4)cc2)n1 [Example 273, 4-[(2R)-2-({[(2R)-2-hydroxy-2-(3-pyridinyl)ethyl]amino}methyl)-3,4-dihydro-2H-chromen-6-yl]-N-(4-methoxy-6-methyl-2-pyrimidinyl)benzenesulfonamide] | ≥ 6.00
CCC(=O)NS(=O)(=O)c1cccc(-c2ccc3c(c2)CC[C@H](CNC[C@H](O)c2cccnc2)O3)c1 [Example 305] | ≥ 6.00
O=C(CS(=O)(=O)c1ccccc1)c1ccc(-c2ccc3c(c2)CC[C@H](CNC[C@H](O)c2cccnc2)O3)cc1 [Example 308, 1-{4-[(2R)-2-({[(2R)-2-hydroxy-2-(3-pyridinyl)ethyl]amino}methyl)-3,4-dihydro-2H-chromen-6-yl]phenyl}-2-(phenylsulfonyl)ethanone Dihydrochloride] | ≥ 6.00
Cc1ccc(Oc2cc(-c3ccc4c(c3)CC[C@H](CNC[C@H](O)c3cccnc3)O4)ccc2C(=O)O)cc1 [Example 195, 4-[(2R)-2-({[(2R)-2-hydroxy-2-(3-pyridinyl)ethyl]amino}methyl)-3,4-dihydro-2H-chromen-6-yl]-2-(4-methylphenoxy)benzoic acid] | ≥ 6.00
O=C1CCc2cc(NS(=O)(=O)c3cccc(-c4ccc5c(c4)CC[C@H](CNC[C@H](O)c4cccnc4)O5)c3)ccc21 [Example 255] | ≥ 6.00
N#Cc1ccc(NS(=O)(=O)c2cccc(-c3ccc4c(c3)CC[C@H](CNC[C@H](O)c3cccnc3)O4)c2)cc1 [Example 257] | ≥ 6.00
O=C(NS(=O)(=O)c1ccc(-c2ccc3c(c2)CC[C@H](CNC[C@H](O)c2cccnc2)O3)cc1)c1ccc(F)cc1 [Example 295, N-(4-fluorobenzoyl)-4-[(2R)-2-({[(2R)-2-hydroxy-2-(3-pyridinyl)ethyl]amino}methyl)-3,4-dihydro-2H-chromen-6-yl]benzenesulfonamide] | ≥ 6.00
COc1cc(OC)nc(NS(=O)(=O)c2cc(-c3ccc4c(c3)CC[C@H](CNC[C@H](O)c3cccnc3)O4)ccc2OC)n1 [Example 270] | ≥ 6.00
O=S(=O)(Nc1nc2ccccc2s1)c1ccc(-c2ccc3c(c2)CCC(CNC[C@H](O)c2cccnc2)O3)cc1 (stereo partly shown) [Example 276] | ≥ 6.00
